Data set [1] can be described thus: (§1) Cytotoxicity against human SNK6 cells assessed as reduction in cell viability after 48 hrs by CCK8 assay. The format is functional, cell-based. The settings on record: SNK6, 48 h.
Data set [2] deals with HeLa. Kind of data set: Cytotoxicity against human HeLa cells assessed as reduction in cell viability after 48 hrs by CCK8 assay. It is filed as functional, cell-based. In general terms: Formazan colour is commonly taken as a measure of viable cells.
The subject of data set [3] is NB-4. The experiment in a line: Cytotoxicity against human NB4 cells assessed as reduction in cell viability after 48 hrs by CCK8 assay. The format is functional, cell-based. Conditions: NB-4, 48 h.
The test system of data set [4] is MCF7. Kind of data set: Cytotoxicity against human MCF7 cells assessed as reduction in cell viability after 48 hrs by CCK8 assay. It is filed as functional, cell-based. Conditions: MCF7, 48 h.
The subject of data set [5] is WSUDLCL2. Kind of data set: (§2) Cytotoxicity against human WSUDLCL2 cells assessed as reduction in cell viability after 48 hrs by CCK8 assay. The format is functional, cell-based.
The nature of data set [6]: as §2. The format is functional, cell-based. The settings on record: WSUDLCL2, 48 h.
Data set [7] concerns L02. Kind of data set: Cytotoxicity against human L02 cells assessed as reduction in cell viability after 48 hrs by CCK8 assay. It is filed as cell-based. The settings on record: L02, 48 h.
For data set [8], the system named is Ramos. The experiment in a line: Cytotoxicity against human Ramos cells assessed as reduction in cell viability after 48 hrs by CCK8 assay. The format is functional, cell-based.
Data set [9] concerns SNT8. The experiment in a line: Cytotoxicity against human SNT8 cells assessed as reduction in cell viability after 48 hrs by CCK8 assay. It is filed as functional, cell-based.
In data set [10] the test system is SUD4. Kind of data set: Cytotoxicity against human SU-DHL-4 cells assessed as reduction in cell viability after 48 hrs by CCK8 assay. The format is functional, cell-based.
For data set [11], the system named is U-937. The experiment in a line: Cytotoxicity against human U937 cells assessed as reduction in cell viability after 48 hrs by CCK8 assay. It is filed as functional, cell-based.
The subject of data set [12] is SNK6. Described as §1. The format is functional, cell-based.
Data set [13] in a line: Cytotoxicity against human HEK293T cells assessed as cell viability at 20 uM after 48 hrs by CCK8 assay relative to control. The format is cell-based, HEK-293T. The settings on record: read-out: Activity.
The nature of data set [14]: Cytotoxicity against human NK92 cells assessed as cell viability at 20 uM after 48 hrs by CCK8 assay relative to control. It is filed as cell-based. The settings on record: read-out: Activity.
The subject of data set [15] is Raji. Kind of data set: Cytotoxicity against human Raji cells assessed as reduction in cell viability after 48 hrs by CCK8 assay. The format is functional, cell-based.
The subject of data set [16] is GES1. The experiment in a line: Cytotoxicity against human GES1 cells assessed as reduction in cell viability after 48 hrs by CCK8 assay. The format is cell-based. Conditions: GES1, 48 h.

Consider 31 compounds from ChEMBL document CHEMBL4673279, “Aromatic Ring Substituted Aaptamine Analogues as Potential Cytotoxic Agents against Extranodal Natural Killer/T-Cell Lymphoma” (J Nat Prod, 2020).

SMILES strings stand for the structures.

The IC50 is the concentration needed to halve the response being measured.

Take `COc1c(OC)c2c3c(nccc3c1-c1ccc(C)cc1)C(c1ccc(C)cc1)=CN2`: the IC50 was 11 µM in [1], 12 µM in data set [2], 18 µM in [3] and more than 20 µM in data set [4].
`COc1c(OC)c2c3c(nccc3c1-c1ccccc1)C=CN2`: the IC50 in [1], in data set [2], in [3] and in data set [4] was more than 20 µM throughout.
Take `COc1c(OC)c2c3c(nccc3c1-c1cccc(C(F)(F)F)c1)C(c1cccc(C(F)(F)F)c1)=CN2`: the IC50 is 8.6 µM in [1], 18 µM in data set [2], 7.1 µM in data set [3] and more than 20 µM in data set [4].
In the same order, the values of `CCc1ccc(C2=CNc3c(OC)c(OC)c(-c4ccc(CC)cc4)c4ccnc2c34)cc1` are 4.2 µM, 17 µM, 16 µM and 18 µM.
On to `COc1c(OC)c2c3c(nccc3c1-c1ccc(Cl)cc1)C(c1ccc(Cl)cc1)=CN2`, for which the IC50 is 8.4 µM in data set [1], 11 µM in data set [2], 17 µM in [3] and more than 20 µM in [4].
The like results for `COc1c(OC)c2c3c(nccc3c1-c1ccc(C(F)(F)F)cc1)C=CN2` were, in that order, more than 20 µM, 11 µM, more than 20 µM and 11 µM.
The like results for `COc1cc2ccnc3c2c(c1OC)NC=C3c1cccc(C)c1` were, in that order, more than 20 µM, 12 µM, more than 20 µM and more than 20 µM.
As to `COc1cc2ccnc3c2c(c1OC)NC=C3c1cccc(C(C)C)c1`, the 50% inhibitory concentration (IC50) is 8.4 µM in [1], 11 µM in [2], 17 µM in data set [3] and more than 20 µM in [4].
Take `COc1cc2ccnc3c2c(c1OC)NC=C3c1ccccc1`: the IC50 is 8.9 µM in data set [1], 17 µM in [2], more than 20 µM in data set [3] and 12 µM in data set [4].
Consider `COc1ccc(C2=CNc3c(OC)c(OC)c(-c4ccc(OC)cc4)c4ccnc2c34)cc1`, for which the IC50 in data set [1] was 5.8 µM; in [2], 13 µM; in data set [3], more than 20 µM; in [4] it was 12 µM.
The like results for `CCc1ccc(C2=CNc3c(OC)c(OC)cc4ccnc2c34)cc1` were, in that order, 4.9 µM, 11 µM, more than 20 µM and more than 20 µM.
In the case of `COc1ccc(-c2c(OC)c(OC)c3c4c(nccc24)C=CN3)cc1`, the IC50 in data set [1] was 1.7 µM; in data set [2] it was 11 µM; in [3] it was more than 20 µM; in data set [4] it was 9.8 µM.
In the case of `COc1c(OC)c2c3c(nccc3c1-c1cccc3ccccc13)C(c1cccc3ccccc13)=CN2`, the half-maximal inhibitory concentration (IC50) was more than 20 µM in data set [1], 8.2 µM in [2], more than 20 µM in [3] and more than 20 µM in [4].
`COc1cc2ccnc3c2c(c1OC)NC=C3c1ccc(Cl)cc1`: the IC50 in data set [1], in [2], in [3] and in data set [4] was more than 20 µM each time.
Regarding `COc1c(OC)c2c3c(nccc3c1-c1cccc(C(F)(F)F)c1)C=CN2`, the IC50 is 4.3 µM in data set [1], 8.9 µM in [2], more than 20 µM in data set [3] and 3.2 µM in data set [4].
Consider `COc1c(OC)c2c3c(nccc3c1-c1cccc(C(C)C)c1)C=CN2`, for which the IC50 in data set [1], in [2], in [3] and in [4] was more than 20 µM throughout.
For `COc1cc2ccnc3c2c(c1OC)NC=C3c1cccc(F)c1`, the IC50 in data set [1], in data set [2], in [3] and in data set [4] was more than 20 µM in each case.
Regarding `COc1c(OC)c2c3c(nccc3c1-c1ccc(Cl)cc1)C=CN2`, the IC50 was 7.7 µM in [1], 1.9 µM in data set [2], more than 20 µM in data set [3] and 9.4 µM in data set [4].
In the case of `COc1c(OC)c2c3c(nccc3c1-c1ccccc1)C(c1ccccc1)=CN2`, the IC50 in [1] was more than 20 µM; in [2], 11 µM; in data set [3], more than 20 µM; in data set [4], 19 µM.
`COc1cc2ccnc3c2c(c1OC)NC=C3c1cccc2ccccc12`: the IC50 was more than 20 µM in data set [1], 4 µM in data set [2], more than 20 µM in [3] and more than 20 µM in data set [4].
Regarding `COc1c(OC)c2c3c(nccc3c1-c1cccc3ccccc13)C=CN2`, the IC50 in data set [1] was 16 µM; in data set [2] it was 18 µM; in data set [3] it was more than 20 µM; in data set [4] it was more than 20 µM.
Regarding `COc1c(OC)c2c3c(nccc3c1-c1cccc(F)c1)C(c1cccc(F)c1)=CN2`, the IC50 was 10 µM in data set [1], 17 µM in data set [2], more than 20 µM in data set [3] and 20 µM in data set [4].
The like results for `COc1c(OC)c2c3c(nccc3c1-c1ccc(C(F)(F)F)cc1)C(c1ccc(C(F)(F)F)cc1)=CN2` were, in that order, 9.4 µM, more than 20 µM, more than 20 µM and more than 20 µM.
For `COc1c(OC)c2c3c(nccc3c1-c1cccc(C)c1)C(c1cccc(C)c1)=CN2`, the Activity result in data set [5], in [8], in data set [9], in data set [10], in data set [11] and in [12] was “Dose-dependent effect” in each case. Besides, in [15], the Activity entry was “Dose-dependent effect”. For the same compound, the IC50 is 1300 nM in data set [6]; 3.4 µM in data set [7]; 1400 nM in data set [8]; 800 nM in data set [10] (SU-DHL-4, 48 h); 2800 nM in [11] (U-937, 48 h); 0.6 µM in [1]. The IC50 came out at 7.2 µM in [2]; 1400 nM in [15]; 2.1 µM in [3]; 10 µM in data set [4]; 2000 nM in data set [16]. In addition, the viability at 48 h, 20 µM in data set [13] and in [14] was not above 90% throughout.
For `COc1c(OC)c2c3c(nccc3c1-c1ccc(F)cc1)C(c1ccc(F)cc1)=CN2`, the half-inhibitory concentration (IC50) in data set [1] is more than 20 µM; in data set [2], 8.7 µM; in data set [3], 19 µM; in data set [4] it was more than 20 µM.
Take `COc1c(OC)c2c3c(nccc3c1-c1cc(C)cc(C)c1)C(c1cc(C)cc(C)c1)=CN2`: the IC50 in data set [1] stood at 3.1 µM; in data set [2] it was 5.4 µM; in [3] it was 7.9 µM; in data set [4], 8.3 µM.
`COc1cc2ccnc3c2c(c1OC)NC=C3c1cccc(C(F)(F)F)c1`: the IC50 in [1] is 8.8 µM; in data set [2], 15 µM; in [3], more than 20 µM; in [4], 17 µM.
The like results for `COc1cc2ccnc3c2c(c1OC)NC=C3` [AAPTAMINE] were, in that order, more than 20 µM, 19 µM, more than 20 µM and more than 20 µM.
In the same order, the values of `COc1cc2ccnc3c2c(c1OC)NC=C3c1cccc(O)c1` are more than 20 µM, more than 20 µM, more than 20 µM and more than 20 µM.
In the same order, the values of `COc1ccc(C2=CNc3c(OC)c(OC)cc4ccnc2c34)cc1` are more than 20 µM, more than 20 µM, more than 20 µM and more than 20 µM.
Take `COc1c(OC)c2c3c(nccc3c1-c1cccc(C(C)C)c1)C(c1cccc(C(C)C)c1)=CN2`: the half-inhibitory concentration (IC50) in data set [1], in [2], in data set [3] and in data set [4] was more than 20 µM throughout.
